The species named for assay [1] is Homo sapiens. Description: Compound was tested for its inhibitory concentration against human leukemic lymphoblasts (CEM Cells) and a resistant subline (CEM / MTX). Type of assay: functional. The note with it: CCRF-CEM.
The species named for assay [2] is Homo sapiens. Kind of assay: Compound was tested for its inhibitory concentration against human leukemic lymphoblasts (CEM Cells). Type of assay: functional. To be noted: CCRF-CEM.
Assay [3] relates to L1210. Description: Compound was tested for its inhibitory concentration to inhibit the growth of wild type L1210 cells and a subline (L1210 / R81). Type of assay: functional, cell-based. To be noted: Mus musculus.
Assay [4] relates to L1210. Kind of assay: Compound was tested for its inhibitory concentration to inhibit the growth of wild type L1210 cells. Type of assay: functional, cell-based, Mus musculus.
Assay [5] deals with L1210. Kind of assay: Compound was tested for its inhibitory concentration to inhibit the growth of wild type L1210 cells; Mean of four separate assays. Type of assay: functional, cell-based. The note with it: Mus musculus.
The test system of assay [6] is Mus musculus. Description: Increase in life span of mice with L1210 leukemia cells at a dose of 80 mg/kg in expt 2. Type of assay: functional.
Assay [7] deals with Mus musculus. Kind of assay: Increase in life span of mice with L1210 leukemia cells at a dose of 80 mg/kg in expt 2; Toxic. Details: dose 80 mg/kg. Type of assay: functional, organism-based.
For assay [8], the system named is Mus musculus. Description: Increase in life span of mice with L1210 leukemia cells at a dose of 40 mg/kg in expt 2; Toxic. Type of assay: functional, organism-based. Further details: dose 40 mg/kg.
Assay [9] relates to Mus musculus. Kind of assay: Increase in life span of mice with L1210 leukemia cells at a dose of 10 mg/kg in expt 1. Type of assay: functional.
Assay [10] concerns Mus musculus. Kind of assay: Median Survival days of mice infected with L1210 leukemia cells at dose 80 mg/kg relative to that of 9 days for control in expt 1; Toxic. Type of assay: functional, organism-based. Details: dose 80 mg/kg.
Assay [11] concerns Mus musculus. Kind of assay: Median Survival days of mice infected with L1210 leukemia cells at dose 40 mg/kg relative to that of 9 days for control in expt 1; Toxic. Further details: dose 40 mg/kg. Type of assay: functional, organism-based.
Assay [12] relates to Mus musculus. Kind of assay: Median Survival days of mice infected with L1210 leukemia cells at dose 10 mg/kg relative to that of 9 days for control in expt 1. Type of assay: functional.
The subject of assay [13] is Mus musculus. Description: Median Survival days of mice infected with L1210 leukemia cells at dose 20 mg/kg relative to that of 9 days for control in expt 1. Type of assay: functional.
For assay [14], the species on record is Mus musculus. Kind of assay: Compound was tested against weight change in mice with L1210 leukemia cells on 7 th Day at Dose 10 mg / kg. Type of assay: functional. To be noted: at 10 mg/kg.
Assay [15] concerns the target T1, Dihydrofolate reductase (Mus musculus) (UniProt P00375).
T1 sequence (whole entry): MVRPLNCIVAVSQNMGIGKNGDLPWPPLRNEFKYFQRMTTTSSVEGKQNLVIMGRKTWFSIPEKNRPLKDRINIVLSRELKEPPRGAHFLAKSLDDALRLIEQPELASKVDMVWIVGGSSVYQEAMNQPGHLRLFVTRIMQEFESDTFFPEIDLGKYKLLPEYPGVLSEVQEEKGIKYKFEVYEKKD
To be noted: L1210.
Description: Compound was tested for inhibition of the enzyme DiHydroFolate Reductase (DHFR) from murine L1210 leukemia cells

The target in assay [16] is T2, Dihydrofolate reductase (Mus musculus, UniProt P00375).
T2 sequence (P00375 whole entry): T1 sequence (whole entry)
Kind of assay: biochemical.
Description: Compound was tested for its inhibitory concentration to inhibit the enzyme Dihydro Folate Reductase (DHFR) from murine L1210 leukemia cells.

The species entered for assay [17] is Mus musculus. Description: Compound was tested against weight change in mice with L1210 leukemia cells on 10 th Day at Dose 80 mg / kg. The note with it: at 80 mg/kg.
For assay [18], the species on record is Mus musculus. Kind of assay: Compound was tested against weight change in mice with L1210 leukemia cells on 10 th Day at Dose 20 mg / kg. To be noted: at 20 mg/kg.
For assay [19], the species on record is Mus musculus. Kind of assay: Compound was tested against weight change in mice with L1210 leukemia cells on 10 th Day at Dose 40 mg / kg. The note with it: at 40 mg/kg.
Assay [20] is filed under the species Homo sapiens. Description: Compound was tested for its inhibitory concentration against human leukemic lymphoblasts (CEM Cells); Mean of two assays. Type of assay: functional. To be noted: CCRF-CEM.
Assay [21] deals with L1210. Description: Compound was tested for its inhibitory concentration to inhibit the growth of wild type L1210 cells and a subline (L1210 / R81); Mean of two assays. Type of assay: functional, cell-based. The note with it: Mus musculus.
The subject of assay [22] is L1210. Description: Compound was tested for its inhibitory concentration to inhibit the growth of wild type L1210 cells. Type of assay: functional, cell-based. The note with it: Mus musculus.
Assay [23] has as its system Mus musculus. Kind of assay: Increase in life span of mice with L1210 leukemia cells at a dose of 80 mg/kg. Type of assay: functional.
The subject of assay [24] is Mus musculus. Description: Increase in life span of mice with L1210 leukemia cells at a dose of 20 mg/kg. Type of assay: functional.
In assay [25] the test system is Mus musculus. Kind of assay: Increase in life span of mice with L1210 leukemia cells at a dose of 40 mg/kg. Type of assay: functional.
Assay [26] deals with Mus musculus. Description: Median Survival days of mice infected with L1210 leukemia cells at dose 20 mg/kg relative to that of 9 days for control. Type of assay: functional.
The test system of assay [27] is Mus musculus. Description: Median Survival days of mice infected with L1210 leukemia cells at dose 40 mg/kg relative to that of 9 days for control. Type of assay: functional.
The test system of assay [28] is Mus musculus. Description: Median Survival days of mice infected with L1210 leukemia cells at dose 80 mg/kg relative to that of 9 days for control. Type of assay: functional.
Assay [29] is filed under the species Homo sapiens. Description: Compound was tested for its inhibitory concentration against human leukemic lymphoblasts ( CEM Cells ). The note with it: CCRF-CEM. Type of assay: functional.
Assay [30] deals with L1210. Description: Compound was tested for its inhibitory concentration to inhibit the growth of wild type L1210 cells and a subline ( L1210 / R81 ). Type of assay: functional, cell-based. To be noted: Mus musculus.
Assay [31] relates to Mus musculus. Description: Increase in life span of mice with L1210 leukemia cells at a dose of 80 mg/kg; Toxic. Type of assay: functional, organism-based. Details: dose 80 mg/kg.
In assay [32] the test system is Mus musculus. Kind of assay: Median Survival days of mice infected with L1210 leukemia cells at dose 80 mg/kg relative to that of 9 days for control; Toxic. Further details: dose 80 mg/kg. Type of assay: functional, organism-based.
The species entered for assay [33] is Homo sapiens. Kind of assay: Compound was tested for its inhibitory concentration against human leukemic lymphoblasts (CEM Cells). Type of assay: functional. To be noted: CCRF-CEM.
The subject of assay [34] is Mus musculus. Kind of assay: Increase in life span of mice with L1210 leukemia cells at a dose of 0.5 mg/kg. Type of assay: functional.
Assay [35] concerns Mus musculus. Description: Increase in life span of mice with L1210 leukemia cells at a dose of 1 mg/kg. Type of assay: functional.
The test system of assay [36] is Mus musculus. Description: Median Survival days of mice infected with L1210 leukemia cells at dose 0.5 mg/kg relative to that of 9 days for control. Type of assay: functional.
Assay [37] concerns Mus musculus. Description: Median Survival days of mice infected with L1210 leukemia cells at dose 1 mg/kg relative to that of 9 days for control. Type of assay: functional.
For assay [38], the species on record is Mus musculus. Kind of assay: Compound was tested against weight change in mice with L1210 leukemia cells on 7 th Day at Dose 0.5 mg / kg. The note with it: at 0.5 mg/kg. Type of assay: functional.
Assay [39] is filed under the species Mus musculus. Kind of assay: Compound was tested against weight change in mice with L1210 leukemia cells on 7 th Day at Dose 1 mg / kg. Type of assay: functional. The note with it: at 1 mg/kg.

By IC50 is commonly meant the point on the concentration scale where inhibition reaches its midpoint. A low value points to greater potency. Broadly, the ILS is the gain in survival time of treated over control animals, in per cent.

In the case of `Nc1nc(N)c2nc(CNc3ccc(C(=O)NC(CCC(=O)Nc4ccc5c(c4)OCO5)C(=O)O)cc3)cnc2n1` (configuration not stated), the IC50 in assay [1] came out at 1 µM; in [2], 140 nM; in assay [3] it was 28 µM; in [4] (Mus musculus, L1210) it was 3.2 nM; in assay [5], 0.39 nM; in [16] it was 45 nM. For the same molecule, the increase in lifespan (ILS) at 80 mg/kg in assay [6] came out at 33%. Besides, the increase in life span (ILS) entry in assay [7] and in assay [8] was “Toxic” in each case. This molecule also came in with an ILS at 10 mg/kg in assay [9] of 56%. The Survival entry in assay [10] was “Toxic”; in [11], “Toxic”; in assay [12], 12 days; in assay [13], 14 days. For the same molecule, the Weight change in assay [14] is on record as 7%; in assay [17], -26%; in assay [18], 3%; in [19], -20%. The IC50/[E] in assay [15] was determined as 1.1.

Take `CC(C)(C)NC(=O)CCC(NC(=O)c1ccc(NCc2cnc3nc(N)nc(N)c3n2)cc1)C(=O)O` (configuration not stated): the IC50 amounted to 36 µM in assay [1]; 5.8 µM in assay [20]; 22 µM in [21]; 120 nM in assay [4] (Mus musculus, L1210); 32 nM in [22]; 44 nM in [16]. For the same molecule, the increase in lifespan (ILS) at 80 mg/kg in assay [23] is 22%. Also, the ILS at 20 mg/kg in assay [24] came out at 0%. The molecule further registered an increase in lifespan (ILS) at 40 mg/kg in assay [25] of 11%. Also, the Survival in assay [26] was 9 days; in assay [27], 10 days; in assay [28], 11 days. In addition, in assay [15], the IC50/[E] came out at 1.1. Further, the Weight change in assay [17] is 9%; in assay [18] it was 17%; in assay [19], 7%.

Consider `Nc1nc(N)c2nc(CNc3ccc(C(=O)NC(CCC(=O)NCc4ccccc4)C(=O)O)cc3)cnc2n1` (configuration not stated), for which the half-inhibitory concentration (IC50) stood at 65 nM in assay [29]; 6 µM in assay [1]; 5 nM in [4] (Mus musculus, L1210); 7.1 nM in assay [4] (l1210); 17 µM in assay [30]; 87 nM in [16]. In addition, the increase in lifespan (ILS) result in assay [31] is “Toxic”. The molecule further showed an ILS at 20 mg/kg in [24] of 33%. In addition, the increase in life span (ILS) at 40 mg/kg in [25] amounted to 56%. Moreover, the Survival in assay [26] is 12 days; in assay [27] it was 14 days; in assay [32], “Toxic”. The IC50/[E] in assay [15] amounted to 2.2. In addition, the Weight change in [17] was -26%; in assay [18], 13%; in assay [19] it was 3%.

With `Nc1nc(N)c2nc(CNc3ccc(C(=O)N[C@@H](CCC(=O)O)C(=O)O)cc3)cnc2n1` [AMINOPTERIN], the 50% inhibitory concentration (IC50) was 1 nM in [33]; 0.32 µM in assay [1]; 3 nM in assay [4] (Mus musculus, L1210); 20 nM in assay [16]. Further, the ILS at 0.5 mg/kg in [34] turned out to be 89%. For the same molecule, the increase in lifespan (ILS) at 1 mg/kg in [35] came out at 122%. The Survival worked out at 17 days in [36] and 20 days in assay [37]. The Weight change in assay [38] is -4%; in assay [39], -5%. In [15], this molecule came in with an IC50/[E] of 0.5.

Values taken from ChEMBL document CHEMBL1123432, “Methotrexate analogues. 28. Synthesis and biological evaluation of new gamma-monoamides of aminopterin and methotrexate” (J Med Chem, 1986).
